{"source": "patent US9889117B2", "about": "“Method for treating and/or delaying the degeneration of Purkinje cells” (EVERFRONT BIOTECH INC., priority 2014, dated 2018)", "key": {"Purkinje cells": {"system": "Purkinje cells", "experiment": "Immunohistochemistry staining of cerebellar slices", "assay_type": "in vivo", "conditions": "cerebellum slices of SCA3 mice; BP 100 or 500 mg/kg/bid, ligustilide 100 mg/kg/bid; sacrificed at 20 and 24 weeks; FIG. 7", "protocol": "(§1) The MJD84.2 transgenic mice (i.e., the mice with modified ATXN3 gene) of eight weeks of age were randomly divided into five groups, with six mice in each group. The mice were treated with the following conditions: (1) untreated group; (2) treated with olive oil; (3) treated with 100 mg/kg/bid of BP; (4) treated with 500 mg/kg/bid of BP; (5) treated with 100 mg/kg/bid of ligustilide. Then, the mice were sacrificed at the age of 20 weeks and 24 weeks. Cerebellar slices staining and tissue protein extraction were performed (see Example 5). Whole brain tissue of the mice was fixed overnight with 3.7% formalin and embedded in paraffin. The samples were sectioned (4 μm) by using a Quanto kit (Thermo, USA) and mounted on a microscope slide."}, "[1]": {"system": "MJD84.2 transgenic mice (SCA3 mice)", "experiment": "Local motor test in SCA3 mice", "assay_type": "in vivo", "conditions": "BP 100 or 500 mg/kg/bid, ligustilide 100 mg/kg/bid; for total moving distance vs untreated group and group fed with olive oil: FIG. 5A; for moving times (moving number) vs untreated group and group fed with olive oil: FIG. 5B; for moving time vs untreated group and group fed with olive oil: FIG. 5C", "protocol": "(§2) MJD84.2 transgenic mice (i.e., the mice being transfected with ATXN3 gene with human 84 CAG repeat sequence, hereinafter referred to as “SCA3 mice”) were used in this experiment. MJD84.2 transgenic mice were an animal model used for studying spinal cerebellar atrophy.\n(§3) The MJD84.2 transgenic mice of two weeks of age were randomly divided into five groups, each group had six mice. The mice were treated with the following conditions for two weeks: (1) untreated group; (2) treated with olive oil (i.e., only treated with the adjuvant); (3) treated with 100 mg/kg/bid (bis in die) of BP; (4) treated with 500 mg/kg/bid of BP; (5) treated with 100 mg/kg/bid of ligustilide. The wild type mice (WT) was used as a control group. After 2 weeks, local motor and rotarod test were conducted.\nLocal motor test was performed to test the exercise ability of mice. 10-week-old mice were tested on rotarod once every three weeks. Then, the mice were placed in a transparent acrylic box 2 hours and were free to move. A behavioral test was conducted for 1 hour by using VersaMax 420 (AccuscanInstrumentsInc, USA), and the data was analyzed by statistical methods."}, "calbindin": {"system": "calbindin", "experiment": "Western blotting of cerebellum proteins, anti-calbindin antibody", "assay_type": "in vivo", "conditions": "cerebellum tissue of SCA3 mice; BP 100 or 500 mg/kg/bid, ligustilide 100 mg/kg/bid; FIG. 8", "protocol": "as §1\n(§4) The cerebellums of the mice sacrificed in example 4 were separated from the whole brain, and the proteins in the cerebellums were extracted. The purified proteins were analyzed by Western blotting assay using an anti-ubiquitin antibody and an anti-calbindin antibody, respectively, to determine the changes in the protein expression level of ubiquitin and calbindin in the cerebellum tissue of SCA3 mice in each group. β-actin was used as an internal control group.\nIt has been known that calbindin is a marker of Purkinje cells."}, "[2]": {"system": "MJD84.2 transgenic mice (SCA3 mice)", "experiment": "Rotarod test in SCA3 mice", "assay_type": "in vivo", "conditions": "BP 100 or 500 mg/kg/bid, ligustilide 100 mg/kg/bid, 4 to 40 rpm within 300 seconds, FIG. 6", "protocol": "as §2, §3\nRotarod test was performed to test the balance and grip ability of mice. The mice were given practice two weeks before the first behavioral test. The experiment was conducted using an IITC rotarod (IITC Life Science Inc, USA).\n10-week-old mice were tested on a rotarod once every three weeks. The test condition was set as a linear acceleration from 4 to 40 rpm within 300 seconds. The time (sec) that the mice fell from the rotarod (i.e., latency to fall) was recorded. […] After the rotarod test, the body weight of the mice were recorded. […]"}, "[3]": {"system": "GFP-ATXN3 protein (Ataxin3Q84)", "experiment": "In vitro cell test: GFP-ATXN3 fluorescence in transfected cells", "assay_type": "cell-based, human", "conditions": "5 μg/ml, 24 hours; HEK 293T or neural stem cells transfected with pEGFP-C1-Ataxin3Q84; FIG. 1", "protocol": "In this experiment, the effects of BP and ligustilide on the protein expression level of SCA3 protein were analyzed. First, pEGFP-C1-Ataxin3Q84 plasmid (i.e., a plasmid comprising Ataxin gene with abnormal CAG repeat number (84Q)) containing green fluorescent protein or pEGFP-C1-Ataxin3Q28 plasmid (i.e., a plasmid comprising Ataxin gene with normal CAG repeat number (28Q)) (Addgene company, U.S.) was transfected into human embryonic kidney (HEK) cells 293T (Bioresource Collection and Research Center, Taiwan) or neural stem cells (NSC). The cells were then cultured in a DMEM medium (Dulbecco's modified Eagle's medium, Thermo) containing 10% fetal bovine serum (Gibco), and incubated in an incubator with 5% CO2 at 37° C. Then, the cells were treated with 5 μg/ml BP (A10353, purchased from Alfa Aesar, U.S.; with a purity of 95%) or ligustilide (5393-015M1, purchased from Pharmaron, China) for 24 hours. The protein aggregation of GFP-ATXN3 protein in the cells of each group was observed by a fluorescence microscopy. Wild type cells and cells transfected with green fluorescent protein (GFP) were used as the control group."}, "[4]": {"system": "zebrafishes injected with ATXN3 MO", "experiment": "Zebrafish behavioral test (tail stimulation)", "assay_type": "in vivo", "conditions": "FIG. 3", "protocol": "Morpholinos (MO) was produced by modifying the structure of a fragment of DNA, which can block protein translation process of mRNA to inhibit the expression of a target protein. The ATXN3 MO used in this experiment has a sequence of 5′-[…]-3′ (SEQ ID NO. 1), and the standard used in the control group is 5′-[…]-3′ (SEQ ID NO. 2) (hereinafter referred to as “Ct MO”). Before injection, the MO was dissolved in ddH2O, stored at −20° C. for used. Zebrafish eggs were micro-injected within about one hour after birth. After 21 to 48 hours post fertilization (hpf), the zebrafish eggs were micro-injected with ATXN3 MO or ATXN3 MO in combination with 250 mg/kg BP, 125 mg/kg BP or 62.5 mg/kg BP. After 48 hours, the fish tails were stimulated by tips, and the number of stimulation causing movement of the fish tails was measured."}, "[5]": {"system": "motor neurons of zebrafishes treated with ATXN3 MO", "experiment": "Zebrafish confocal microscopy test of motor neurons", "assay_type": "in vivo", "conditions": "250 mg/kg BP with ATXN3 MO, after 48 hours; FIG. 4", "protocol": "Zebrafish eggs were micro-injected with 300 nM/μl ATXN3 MO, 250 mg/kgBP, or ATXN3 MO in combination with 250 mg/kgBP, 125 mg/kg BP or 62.5 mg/kgBP. After 48 hours, the zebrafishes were enclosed in glass slides. The motor neurons in the living body were recorded by a confocal fluorescence microscopy.\nThe data shown in FIG. 4 was obtained by 100%*(the number of the survived zebrafishes/total number of the zebrafishes)."}, "zebrafish": {"system": "zebrafish", "experiment": "Zebrafish safe dose test (survival rate)", "assay_type": "in vivo", "conditions": "for survival rate of the zebrafishes: after 48 hours, 28.5° C., FIG. 2", "protocol": "In this experiment, the zebrafishes that were used as the animal models in the experimental group were Tg (HuC:GFP), which is characterized by its primary sensory neurons (Rohon-Beard cells) that can produce fluorescence. The zebrafishes used in the control group were wild type zebrafishes. All of the zebrafishes were provided by TZCAS (Taiwan Zebrafish Core Facility at Academia Sinica, Taiwan) and TZCF (Taiwan Zebrafish Core Facility, Taiwan). First, the toxicity of BP to zebrafish was tested by injecting different dose of BP to zebrafishes. The zebrafishes were then kept at 28.5° C. After 48 hours, the survival rate of the zebrafishes was observed.\nThe survival rate of the zebrafishes treated with 500 mg/kg BP was 50%, and both of the survival rates of the zebrafishes treated with 250 mg/kg and 50 mg/kg BP were greater than 75%."}, "ubiquitin": {"system": "ubiquitin", "experiment": "Western blotting of cerebellum proteins, anti-ubiquitin antibody", "assay_type": "in vivo", "conditions": "cerebellum tissue of SCA3 mice treated with BP; FIG. 9", "protocol": "as §1\nas §4, with “control group. […]” for “control group.”"}}}
{"smiles": "CCC/C=C1\\OC(=O)C2=C1CCC=C2", "note": "[ligustilide, 3-butylidene-4,5-dihydrophthalide]", "values": [{"measurement": "number of the Purkinje cells vs untreated group and group fed with olive oil", "setting": "Purkinje cells", "value": "significantly higher"}, {"measurement": "total moving distance vs untreated group and group fed with olive oil", "setting": "[1]", "value": "higher"}, {"measurement": "moving times (moving number) vs untreated group and group fed with olive oil", "setting": "[1]", "value": "higher"}, {"measurement": "moving time vs untreated group and group fed with olive oil", "setting": "[1]", "value": "higher"}, {"measurement": "protein expression level of calbindin vs untreated group and group fed with olive oil", "setting": "calbindin", "value": "significantly higher"}, {"measurement": "balance and grip ability (rotarod, latency to fall) vs untreated group and group fed with olive oil", "setting": "[2]", "value": "better"}, {"measurement": "fluorescent signal of Ataxin3Q84 in the cells vs untreated groups", "setting": "[3]", "value": "significantly lower"}]}
{"smiles": "CCCC=C1OC(=O)c2ccccc21", "note": "[BP, n-butylidenephthalide]", "values": [{"measurement": "number of the Purkinje cells vs untreated group and group fed with olive oil", "setting": "Purkinje cells", "value": "significantly higher"}, {"measurement": "total moving distance vs untreated group and group fed with olive oil", "setting": "[1]", "value": "higher"}, {"measurement": "moving times (moving number) vs untreated group and group fed with olive oil", "setting": "[1]", "value": "higher"}, {"measurement": "moving time vs untreated group and group fed with olive oil", "setting": "[1]", "value": "higher"}, {"measurement": "amount of stimulation causing the movement of fish tails", "setting": "[4]; ATXN3 MO in combination with 250, 125 or 62.5 mg/kg BP, after 48 hours, vs ATXN3 MO alone", "value": "restored (i.e., decreased)"}, {"measurement": "restoring of behavioral ability of the diseased zebrafishes, comparison of doses", "setting": "[4]; BP of 250 mg/kg, compared with 125 and 62.5 mg/kg", "value": "the most obvious effect"}, {"measurement": "number of motor neurons", "setting": "[5]", "value": "can maintain the number of motor neurons"}, {"measurement": "protein expression level of calbindin vs untreated group and group fed with olive oil", "setting": "calbindin", "value": "significantly higher"}, {"measurement": "survival rate of the zebrafishes", "setting": "zebrafish; 50 mg/kg BP injected", "value": "greater than 75%"}, {"measurement": "survival rate of the zebrafishes", "setting": "zebrafish; 250 mg/kg BP injected", "value": "greater than 75%"}, {"measurement": "survival rate of the zebrafishes", "setting": "zebrafish; 500 mg/kg BP injected", "value": 50, "unit": "%"}, {"measurement": "safe dose for zebrafish", "setting": "zebrafish; from survival rate after 48 hours", "value": "lower than 250 mg/kg"}, {"measurement": "content of the ubiquitination proteins vs untreated group and group fed with olive oil", "setting": "ubiquitin", "value": "significantly higher"}, {"measurement": "balance and grip ability (rotarod, latency to fall) vs untreated group and group fed with olive oil", "setting": "[2]", "value": "better"}, {"measurement": "fluorescent signal of Ataxin3Q84 in the cells vs untreated groups", "setting": "[3]", "value": "significantly lower"}]}
